From patent US20170281728A1, “METHOD FOR TREATING CANCER USING TETRADRINE” (Board of Supervisors of Louisiana State University and …, priority 2016, published 2017)

Key:
LNCaP cells = test: Cytotoxicity by crystal violet staining and MTT survival assay, LNCaP cells; assay type: cell-based; settings: for response of cells following exposure to the agent alone: TRAIL or TNF-α alone
Protocol: (§1) LNCaP and C4-2b cells were used as model cell lines that show resistance to TRAIL. […] In the present study we evaluated the effects of TET alone or in combination with TRAIL and TNF-α. Prostate cancer cell lines LNCaP and LNCaP derived C4-2b were used for this study. Cell lines were treated with TET, TRAIL, or TNF-αalone or in various combinations for different time points. mRNA expression was quantitated via Real Time-PCR and changes in protein expression were analyzed by Western Blot analysis. Cytotoxicity was evaluated using the Crystal violet and MTT survival assay.
(§2) Turning to FIGS. 12-15, pretreatment of both cell lines with TET for 12 hours, followed by TRAIL and TNF-α treatment for another 24 hours increased the apoptosis inducing potential of TRAIL and TNF-α in these cells. […] For FIGS. 12 and 14, LNCap (FIG. 12) and C4-2b (FIG. 14) cells treated with or without TET, TRAIL, and TNFα were crystal violet stained. Wells are representative of at least three repeats. For FIGS. 13 and 15, LNCap (FIG. 13) and C4-2b (FIG. 15) cells were subjected to MTT assay using the same experimental plan as in FIGS. 12, 14 respectively. Data were normalized to the untreated control at the respective concentrations of TET, TRAIL and TNF-α. Data are representative of at least three repeats.

prostate cancer cells [1] = test: Apoptosis in prostate cancer cells in vivo
C4-2b cells = test: Cytotoxicity by crystal violet staining and MTT survival assay, C4-2b cells; assay type: cell-based; settings: for response of cells following exposure to the agent alone: TRAIL or TNF-α alone
Protocol: as §1, §2

DR4 [2] = test: DR4 protein level by western blotting, C4-2b cells; assay type: cell-based; settings: 20 μM TET, 0-48 hours, GAPDH loading control
Protocol: as §1, with “assay. Turning to FIGS. 2A-2C, C4-2b cells were treated with 20 μM TET for 0-48 hours. After the treatments cells were lysed and DR4, DR5 and TNFR1 levels were detected by western blotting. Similarly, in FIGS. 3-5, densiomentry fold increase for DR4, DR5 and TNFR1 western blots is shown. The fold increase was calculated with the density of untreated LNCaP cells as a reference. GAPDH was used as loading control. Averages are representative of 3 independent experiments. Error bars represent standard deviation.” for “assay.”

prostate cancer cells [3] = test: Apoptosis in prostate cancer cells in vitro; assay type: cell-based
DR5 [4] = test: DR5 protein level by western blotting, C4-2b cells; assay type: cell-based; settings: 20 μM TET, 0-48 hours, GAPDH loading control
Protocol: as §1, with “assay. Turning to FIGS. 2A-2C, C4-2b cells were treated with 20 μM TET for 0-48 hours. After the treatments cells were lysed and DR4, DR5 and TNFR1 levels were detected by western blotting. Similarly, in FIGS. 3-5, densiomentry fold increase for DR4, DR5 and TNFR1 western blots is shown. The fold increase was calculated with the density of untreated LNCaP cells as a reference. GAPDH was used as loading control. Averages are representative of 3 independent experiments. Error bars represent standard deviation.” for “assay.”

DR4 [5] = test: DR4 mRNA expression by reverse transcriptase PCR, C4-2b cells; assay type: cell-based; settings: 20 μM Tet, 0-48 hours, normalized to GAPDH
Protocol: as §1, with “assay. Turning to FIGS. 6-11, LNCaP and C4-2b cells were incubated in the presence of 20 μM of Tet for different time points (0-48 hours). Total RNA was prepared from the cells and cDNA was transcribed. Reverse transcriptase PCR was performed to determine the mRNA levels of DR4, DR5 and TNF-α. GAPDH was used for normalization. Each data point represents mean+/−standard deviation of three independent gels.” for “assay.”

TNFR1 [6] = test: TNFR1 protein level (array / western blot densitometry), LNCaP cells; assay type: cell-based; settings: 20 μM TET, versus untreated cells
Protocol: (§3) LNCaP and C4-2b cells were used as model cell lines that show resistance to TRAIL. […] In the present study we evaluated the effects of TET alone or in combination with TRAIL and TNF-α. Prostate cancer cell lines LNCaP and LNCaP derived C4-2b were used for this study. Cell lines were treated with TET, TRAIL, or TNF-αalone or in various combinations for different time points. mRNA expression was quantitated via Real Time-PCR and changes in protein expression were analyzed by Western Blot analysis. Cytotoxicity was evaluated using the Crystal violet and MTT survival assay. […] LNCaP cells were either untreated or treated with 20 μM TET for 24 hours. Arrays were incubated with 400 μg of each cell lysate. Data shown in FIG. 1 are from a 1 minute exposure to X-ray film. […] Fold increase was calculated with the density of untreated LNCaP cells as a reference. Averages are representative of 2 independent experiments. Error bars represent standard deviation. Turning to FIGS. 2A-2C, C4-2b cells were treated with 20 μM TET for 0-48 hours. After the treatments cells were lysed and DR4, DR5 and TNFR1 levels were detected by western blotting. Similarly, in FIGS. 3-5, densiomentry fold increase for DR4, DR5 and TNFR1 western blots is shown. The fold increase was calculated with the density of untreated LNCaP cells as a reference. GAPDH was used as loading control. […]

DR4 [7] = test: DR4 protein level (array / western blot densitometry), LNCaP cells; assay type: cell-based; settings: 20 μM TET, versus untreated cells
Protocol: as §3

TNFR1 [8] = test: TNFR1 protein level by western blotting, C4-2b cells; assay type: cell-based; settings: 20 μM TET, 0-48 hours, GAPDH loading control
Protocol: LNCaP and C4-2b cells were used as model cell lines that show resistance to TRAIL. […] In the present study we evaluated the effects of TET alone or in combination with TRAIL and TNF-α. Prostate cancer cell lines LNCaP and LNCaP derived C4-2b were used for this study. Cell lines were treated with TET, TRAIL, or TNF-αalone or in various combinations for different time points. mRNA expression was quantitated via Real Time-PCR and changes in protein expression were analyzed by Western Blot analysis. Cytotoxicity was evaluated using the Crystal violet and MTT survival assay. Turning to FIGS. 2A-2C, C4-2b cells were treated with 20 μM TET for 0-48 hours. After the treatments cells were lysed and DR4, DR5 and TNFR1 levels were detected by western blotting. Similarly, in FIGS. 3-5, densiomentry fold increase for DR4, DR5 and TNFR1 western blots is shown. The fold increase was calculated with the density of untreated LNCaP cells as a reference. GAPDH was used as loading control. Averages are representative of 3 independent experiments. Error bars represent standard deviation.

TNFR1 [9] = test: TNFR1 mRNA expression by reverse transcriptase PCR, C4-2b cells; assay type: cell-based; settings: 20 μM Tet, 0-48 hours, normalized to GAPDH
TNFR1 [10] = test: TNFR1 mRNA expression by reverse transcriptase PCR, LNCaP cells; assay type: cell-based; settings: 20 μM Tet, 0-48 hours, normalized to GAPDH
DR5 [11] = test: DR5 mRNA expression by reverse transcriptase PCR, LNCaP cells; assay type: cell-based; settings: 20 μM Tet, 0-48 hours, normalized to GAPDH
Protocol: as §1, with “assay. Turning to FIGS. 6-11, LNCaP and C4-2b cells were incubated in the presence of 20 μM of Tet for different time points (0-48 hours). Total RNA was prepared from the cells and cDNA was transcribed. Reverse transcriptase PCR was performed to determine the mRNA levels of DR4, DR5 and TNF-α. GAPDH was used for normalization. Each data point represents mean+/−standard deviation of three independent gels.” for “assay.”

DR5 [12] = test: DR5 protein level (array / western blot densitometry), LNCaP cells; assay type: cell-based; settings: 20 μM TET, versus untreated cells
Protocol: as §3

DR4 [13] = test: DR4 mRNA expression by reverse transcriptase PCR, LNCaP cells; assay type: cell-based; settings: 20 μM Tet, 0-48 hours, normalized to GAPDH
Protocol: as §1, with “assay. Turning to FIGS. 6-11, LNCaP and C4-2b cells were incubated in the presence of 20 μM of Tet for different time points (0-48 hours). Total RNA was prepared from the cells and cDNA was transcribed. Reverse transcriptase PCR was performed to determine the mRNA levels of DR4, DR5 and TNF-α. GAPDH was used for normalization. Each data point represents mean+/−standard deviation of three independent gels.” for “assay.”

DR5 [14] = test: DR5 mRNA expression by reverse transcriptase PCR, C4-2b cells; assay type: cell-based; settings: 20 μM Tet, 0-48 hours, normalized to GAPDH
Protocol: as §1, with “assay. Turning to FIGS. 6-11, LNCaP and C4-2b cells were incubated in the presence of 20 μM of Tet for different time points (0-48 hours). Total RNA was prepared from the cells and cDNA was transcribed. Reverse transcriptase PCR was performed to determine the mRNA levels of DR4, DR5 and TNF-α. GAPDH was used for normalization. Each data point represents mean+/−standard deviation of three independent gels.” for “assay.”

[15] = TET pretreatment 12 hours, then TRAIL and TNF-α for another 24 hours

| Molecule | apoptosis inducing potential of TRAIL and TNF-α after TET pretreatment (LNCaP cells; [15]) | apoptosis response to soluble h-TRAIL and TNF-α in combination with TET (LNCaP cells; TET treated cells in vitro) | apoptosis in prostate cancer cells (prostate cancer cells [1]) | apoptosis inducing potential of TRAIL and TNF-α after TET pretreatment (C4-2b cells; [15]) | apoptosis response to soluble h-TRAIL and TNF-α in combination with TET (C4-2b cells; TET treated cells in vitro) | protein level of DR4 (DR4 [2]) | apoptosis in prostate cancer cells (prostate cancer cells [3]) | protein level of DR5 (DR5 [4]) | mRNA level of DR4 (DR4 [5]) | protein level of TNFR1 (TNFR1 [6]) | protein level of DR4 (DR4 [7]) | protein level of TNFR1 (TNFR1 [8]) | mRNA level of TNFR1 (TNFR1 [9]) | mRNA level of TNFR1 (TNFR1 [10]) | mRNA level of DR5 (DR5 [11]) | protein level of DR5 (DR5 [12]) | mRNA level of DR4 (DR4 [13]) | mRNA level of DR5 (DR5 [14]) | response of cells following exposure to the agent alone (LNCaP cells) | response of cells following exposure to the agent alone (C4-2b cells) |
| --- | --- | --- | --- | --- | --- | --- | --- | --- | --- | --- | --- | --- | --- | --- | --- | --- | --- | --- | --- | --- |
| COc1ccc2cc1Oc1ccc(cc1)C[C@H]1c3cc(c(OC)cc3CCN1C)Oc1c(OC)c(OC)cc3c1[C@H](C2)N(C)CC3 [TET, Tetrandrine] | increased | synergistic apoptosis response | promotes apoptosis | increased | synergistic apoptosis response | increased | promotes apoptosis | increased | increased | increased | increased | increased | increased | increased | increased | increased | increased | increased |  |  |
| TNF-α |  |  |  |  |  |  |  |  |  |  |  |  |  |  |  |  |  |  | did not show a significant response | did not show a significant response |
| TRAIL: protein functioning as a ligand that induces apoptosis; cytokine binding death receptors DR4 and DR5 (protein, UniProt P50591 1-281, looked up) Tumor necrosis factor ligand …: MAMMEVQGGPSLGQTCVLIVIFTVLLQSLCVAVTYVYFTNELKQMQDKYSKSGIACFLKEDDSYWDPNDEESMNSPCWQVKWQLRQLVRKMILRTSEETISTVQEKQQNISPLVRERGPQRVAAHITGTRGRSNTLSSPNSKNEKALGRKINSWESSRSGHSFLSNLHLRNGELVIHEKGFYYIYSQTYFRFQEEIKENTKNDKQMVQYIYKYTSYPDPILLMKSARNSCWSKDAEYGLYSIYQGGIFELKENDRIFVSVTNEHLIDMDHEASFFGAFLVG |  |  |  |  |  |  |  |  |  |  |  |  |  |  |  |  |  |  | did not show a significant response | did not show a significant response |
